# pEC50, pIC50: −log10 of the molar value.
# What was measured:
# human D2R/β-arrestin [1] = biological target: T1, human D2R/β-arrestin (Homo sapiens (Human), UniProt P14416); experiment: Gi/cAMP agonist assay (Lance Ultra cAMP, Forskolin); assay type: cell-based; conditions: CHO-K1 cell line expressing human D2R/β-arrestin
# Procedure: (§1) The assays can be performed using proper detection reagents either prepared using routine methods known in the art or commercially available (e.g., PE Lance Ultra cAMP kit (TRF0263)). Cells are grown to the necessary confluence and then detached. The cells are then centrifuged, washed, resuspended, and seeded into a container (e.g., 384-well plate). The cells are incubated (e.g., at 37° C., 5% CO2) for the appropriate period of time (e.g., 24 hours), before various compounds (e.g., a compound of the invention or a control compound) are added to the cells. Afterwards, cAMP inducing agents (e.g., Forskolin) are added to and incubated with the cells before detection reagents (e.g., a cAMP antibody, such as ULight-anti-cAMP solution) are added to the cells. Read-out (e.g., luminescence, or fluorescence) is detected using standard equipment.
# Compounds were pin-transferred (100 nL) to the cells, and incubated for 10 min. at 37° C. […] Eu-cAMP tracer solution (100, PerkinElmer, […] in 17.64 ml kit buffer) and ULight-anti-cAMP solution (100, 120 μL antibody in 17.88 ml kit buffer) was then added to each well.
# human D2R/β-arrestin [2] = biological target: T1, human D2R/β-arrestin; experiment: cell-based; conditions: β-arrestin Antagonist, CHO-K1 cell line expressing human D2R/β-arrestin; quinpirole used as agonist
# human D2R/β-arrestin [3] = biological target: T1, human D2R/β-arrestin; experiment: β-Arrestin agonist assay (PathHunter); assay type: cell-based; conditions: CHO-K1 cell line expressing human D2R/β-arrestin
# Procedure: as §1, with “PathHunter® β-Arrestin Detecting Kit (DiscoveRX)).” for “PE Lance Ultra cAMP kit (TRF0263)).”, “After incubation of the cells” for “Afterwards, cAMP inducing agents (e.g., Forskolin) are added to and incubated”, “compounds,” for “cells before”, “buffer containing Emerald II: Galactor-Star” for “cAMP antibody, such”, “provided DiscoveRX)” for “ULight-anti-cAMP solution)”, “The read-out” for “Read-out”
# The detection reagent (9.6 μL, Buffer:Emerald II:Galactor-Star in a 19:5:1 ratio, i.e., 14.06 mL:3.7 mL:0.74 mL=18.5 mL) was then added to the agonist plates.
# human D2R/β-arrestin [4] = biological target: T1, human D2R/β-arrestin; experiment: cell-based; conditions: cAMP Antagonist, CHO-K1 cell line expressing human D2R/β-arrestin; quinpirole used as agonist
# T1 sequence (P14416 whole entry): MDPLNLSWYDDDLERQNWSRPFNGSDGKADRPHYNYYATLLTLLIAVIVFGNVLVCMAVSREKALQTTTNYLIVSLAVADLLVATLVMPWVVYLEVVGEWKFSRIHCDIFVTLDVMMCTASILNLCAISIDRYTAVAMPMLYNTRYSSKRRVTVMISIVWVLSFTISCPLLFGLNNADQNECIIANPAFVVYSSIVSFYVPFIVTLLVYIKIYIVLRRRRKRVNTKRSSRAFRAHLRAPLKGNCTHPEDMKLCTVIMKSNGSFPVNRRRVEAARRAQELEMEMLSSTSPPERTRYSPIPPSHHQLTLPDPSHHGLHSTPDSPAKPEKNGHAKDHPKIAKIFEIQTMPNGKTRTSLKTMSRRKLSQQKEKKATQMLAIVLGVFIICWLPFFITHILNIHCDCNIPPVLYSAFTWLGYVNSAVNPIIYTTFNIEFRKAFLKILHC
Compound,pEC50 (human D2R/β-arrestin [1]),pIC50 (human D2R/β-arrestin [2]),pEC50 (human D2R/β-arrestin [3]),pIC50 (human D2R/β-arrestin [4])
"O=C(NC(c1ccc(Cl)cc1)c1ccccn1)C1CCN(CCOc2cccc(Cl)c2)CC1 (single isomer, unassigned) [Compound 1a, 1-(2-(3-chlorophenoxy)ethyl)-N-((4-chlorophenyl)(pyridin-2-yl)methyl)piperidine-4-carboxamide]",< 4.52,5.00 to 6.00,< 4.52,6.00 to 7.00
"O=C(NC(c1ccc(Cl)cc1)c1ccccn1)C1CCN(CCOc2ccccc2)CC1 (single isomer, unassigned) [Compound 63a, N-((4-chlorophenyl)(pyridin-2-yl)methyl)-1-(2-phenoxyethyl)piperidine-4-carboxamide]",6.00 to 7.00,5.00 to 6.00,< 4.52,< 4.52
"CN(CC1CCN(CCOc2ccccc2F)CC1)C(c1ccc(Cl)cc1)c1ccccn1 (single isomer, unassigned) [Compound 72b, 1-(4-chlorophenyl)-N-((1-(2-(2-fluorophenoxy)ethyl)piperidin-4-yl)methyl)-N-methyl-1-(pyridin-2-yl)methanamine]",< 4.52,> 7.00,< 4.52,> 7.00
"CN(CC1CCN(CCOc2ccccc2)CC1)C(c1ccc(F)cc1)c1ccccn1 (single isomer, unassigned) [Compound 74b, 1-(4-fluorophenyl)-N-methyl-N-((1-(2-phenoxyethyl)piperidin-4-yl)methyl)-1-(pyridin-2-yl)methanamine]",6.00 to 7.00,6.00 to 7.00,< 4.52,6.00 to 7.00
"COc1cccc(C(c2ccccn2)N(C)CC2CCN(CCOc3ccccc3)CC2)c1 (single isomer, unassigned) [Compound 76a, 1-(3-methoxyphenyl)-N-methyl-N-((1-(2-phenoxyethyl)piperidin-4-yl)methyl)-1-(pyridin-2-yl)methanamine]",6.00 to 7.00,5.00 to 6.00,< 4.52,6.00 to 7.00
"CN(CC1CCN(CCOc2ccccc2)CC1)C(c1ccc(Cl)cc1)c1ccccn1 (single isomer, unassigned) [Compound 79a, 1-(4-chlorophenyl)-N-methyl-N-((1-(2-phenoxyethyl)piperidin-4-yl)methyl)-1-(pyridin-2-yl)methanamine]",< 4.52,5.00 to 6.00,< 4.52,5.00 to 6.00
"Fc1ccccc1C(NCC1CCN(CCOc2ccccc2)CC1)c1ccc(Cl)cc1 (single isomer, unassigned) [Compound 81a, 1-(4-chlorophenyl)-1-(2-fluorophenyl)-N-((1-(2-phenoxyethyl)piperidin-4-yl)methyl)methanamine]",< 4.52,6.00 to 7.00,< 4.52,6.00 to 7.00
"Fc1ccc(F)c(OCCN2CCC(CNC(c3ccc(Cl)cc3)c3ccccn3)CC2)c1 (single isomer, unassigned) [Compound 89a, 1-(4-chlorophenyl)-N-((1-(2-(2,5-difluorophenoxy)ethyl)piperidin-4-yl)methyl)-1-(pyridin-2-yl)methanamine]",< 4.52,6.00 to 7.00,< 4.52,6.00 to 7.00
"O=C(NC(c1ccc(Cl)cc1)c1ccncc1F)C1CCN(CCOc2ccccc2F)CC1 (single isomer, unassigned) [Compound 91a, N-((4-chlorophenyl)(3-fluoropyridin-4-yl)methyl)-1-(2-(2-fluorophenoxy)ethyl)piperidine-4-carboxamide]",6.00 to 7.00,5.00 to 6.00,< 4.52,< 4.52
"O=C(NC(c1cccc(OC(F)(F)F)c1)c1ccccn1)C1CCN(CCOc2ccccc2F)CC1 (single isomer, unassigned) [Compound 93a, 1-(2-(2-fluorophenoxy)ethyl)-N-(pyridin-2-yl(3-(trifluoromethoxy)phenyl)methyl)piperidine-4-carboxamide]",4.52 to 5.00,5.00 to 6.00,< 4.52,6.00 to 7.00

# Now from value to compound:
pEC50 (human D2R/β-arrestin [1]),pIC50 (human D2R/β-arrestin [2]),pEC50 (human D2R/β-arrestin [3]),pIC50 (human D2R/β-arrestin [4]),Compound
< 4.52,6.00 to 7.00,< 4.52,6.00 to 7.00,"O=C(NC(c1ccc(Cl)cc1)c1ccccn1)C1CCN(CCOc2ccccc2)CC1 (single isomer, unassigned) [Compound 63b, N-((4-chlorophenyl)(pyridin-2-yl)methyl)-1-(2-phenoxyethyl)piperidine-4-carboxamide]"
6.00 to 7.00,5.00 to 6.00,6.00 to 7.00,< 4.52,"CC1(C(=O)NC(c2ccc(F)cc2)c2ccccn2)CCN(CCOc2ccccc2)CC1 (single isomer, unassigned) [Compound 69a, N-((4-fluorophenyl)(pyridin-2-yl)methyl)-4-methyl-1-(2-phenoxyethyl)piperidine-4-carboxamide]"
5.00 to 6.00,5.00 to 6.00,< 4.52,< 4.52,"CN(CC1CCN(CCOc2ccccc2)CC1)C(c1ccc(F)cc1)c1ccccn1 (single isomer, unassigned) [Compound 74a, 1-(4-fluorophenyl)-N-methyl-N-((1-(2-phenoxyethyl)piperidin-4-yl)methyl)-1-(pyridin-2-yl)methanamine]"
6.00 to 7.00,5.00 to 6.00,< 4.52,5.00 to 6.00,"Fc1ccc(C(NCC2CCN(CCOc3ccccc3)CC2)c2ccccn2)cc1 (single isomer, unassigned) [Compound 78a, 1-(4-fluorophenyl)-N-((1-(2-phenoxyethyl)piperidin-4-yl)methyl)-1-(pyridin-2-yl)methanamine]"
6.00 to 7.00,5.00 to 6.00,< 4.52,4.52 to 5.00,"Fc1ccc(F)c(OCCN2CCC(CNC(c3ccc(Cl)cc3)c3ccccn3)CC2)c1 (single isomer, unassigned) [Compound 89b, 1-(4-chlorophenyl)-N-((1-(2-(2,5-difluorophenoxy)ethyl)piperidin-4-yl)methyl)-1-(pyridin-2-yl)methanamine]"
6.00 to 7.00,6.00 to 7.00,< 4.52,6.00 to 7.00,"O=C(NC(c1ccc(Cl)cc1)c1ccc(F)cn1)C1CCN(CCOc2ccccc2F)CC1 (single isomer, unassigned) [Compound 92a, N-((4-chlorophenyl)(5-fluoropyridin-2-yl)methyl)-1-(2-(2-fluorophenoxy)ethyl)piperidine-4-carboxamide]"
4.52 to 5.00,5.00 to 6.00,< 4.52,5.00 to 6.00,"O=C(NC(c1ccc(Cl)cc1)c1ccc(F)cn1)C1CCN(CCOc2ccccc2F)CC1 (single isomer, unassigned) [Compound 92b, N-((4-chlorophenyl)(5-fluoropyridin-2-yl)methyl)-1-(2-(2-fluorophenoxy)ethyl)piperidine-4-carboxamide]"
6.00 to 7.00,5.00 to 6.00,< 4.52,6.00 to 7.00,"CC(C1CCN(CCOc2ccccc2)CC1)N(C)C(c1ccc(Cl)cc1)c1ccccn1 (single isomer, unassigned) [Compound 97a, N-((4-chlorophenyl)(pyridin-2-yl)methyl)-N-methyl-1-(1-(2-phenoxyethyl)piperidin-4-yl)ethan-1-amine]"
< 4.52,> 7.00,< 4.52,> 7.00,"CC(C1CCN(CCOc2ccccc2)CC1)N(C)C(c1ccc(Cl)cc1)c1ccccn1 (single isomer, unassigned) [Compound 97c, N-((4-chlorophenyl)(pyridin-2-yl)methyl)-N-methyl-1-(1-(2-phenoxyethyl)piperidin-4-yl)ethan-1-amine]"
< 4.52,6.00 to 7.00,< 4.52,6.00 to 7.00,"CC(C1CCN(CCOc2ccccc2)CC1)N(C)C(c1ccc(Cl)cc1)c1ccccn1 (single isomer, unassigned) [Compound 97d, N-((4-chlorophenyl)(pyridin-2-yl)methyl)-N-methyl-1-(1-(2-phenoxyethyl)piperidin-4-yl)ethan-1-amine]"
< 4.52,6.00 to 7.00,< 4.52,6.00 to 7.00,"CC1(CNC(c2ccc(F)cc2)c2ccccn2)CCN(CCOc2ccccc2C(F)(F)F)CC1 (single isomer, unassigned) [Compound 101a, 1-(4-fluorophenyl)-N-((4-methyl-1-(2-(2-(trifluoromethyl)phenoxy)ethyl)piperidin-4-yl)methyl)-1-(pyridin-2-yl)methanamine]"

# Source: US10752588B2 (The Broad Institute, Inc., priority 2014, dated 2020)
